Test results reported in PubChem BioAssay AID248 (DTP/NCI, 2004).
Several values for one entry are separate records, joined by “and”; a condition that tells them apart may be missing. Equal values may be shown once. Inconclusive results and toxic doses are left out. No stated cut-off is given here; in the data, active means T/C of 150% or more; inactive means T/C below 125%.

Tested on: L1210 leukemia ip in BDF1 mice, survival T/C
Assay: NCI In Vivo Anticancer Drug Screen. Data for tumor model L1210 Leukemia (intraperitoneal) in B6D2F1 (BDF1) mice
Conditions: endpoint: mean survival time, higher = longer survival
Procedure, shortened: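 Transplantable tumor model; survival measured in treated vs vehicle control mice. Value = treated/control.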

[1] = dose: 100.0 mg/kg/injection, schedule: Q01DX001 (ip), vehicle: carboxymethylcellulose (CMC)
[2] = dose: 200.0 mg/kg/injection, schedule: Q01DX001 (ip), vehicle: carboxymethylcellulose (CMC)
[3] = dose: 400.0 mg/kg/injection, schedule: Q01DX001 (ip), vehicle: carboxymethylcellulose (CMC)
[4] = dose: 100.0 mg/kg/injection, schedule: Q04DX003 (ip), vehicle: saline
[5] = dose: 200.0 mg/kg/injection, schedule: Q04DX003 (ip), vehicle: saline
[6] = dose: 400.0 mg/kg/injection, schedule: Q04DX003 (ip), vehicle: saline
[7] = dose: 60.0 mg/kg/injection, schedule: Q01DX Z (oral), vehicle: methylcellulose (MC)
[8] = dose: 120.0 mg/kg/injection, schedule: Q01DX Z (oral), vehicle: methylcellulose (MC)
[9] = dose: 240.0 mg/kg/injection, schedule: Q01DX Z (ip), vehicle: methylcellulose (MC)
[10] = dose: 240.0 mg/kg/injection, schedule: Q01DX Z (oral), vehicle: methylcellulose (MC)
[11] = dose: 480.0 mg/kg/injection, schedule: Q01DX Z (oral), vehicle: methylcellulose (MC)
[12] = dose: 100.0 mg/kg/injection, schedule: Q01DX009 (ip), vehicle: Klucel (hydroxypropylcellulose) (HPC)
[13] = dose: 200.0 mg/kg/injection, schedule: Q01DX009 (ip), vehicle: Klucel (hydroxypropylcellulose) (HPC)
[14] = dose: 400.0 mg/kg/injection, schedule: Q01DX009 (ip), vehicle: Klucel (hydroxypropylcellulose) (HPC)
[15] = dose: 100.0 mg/kg/injection, schedule: Q01DX009 (ip), vehicle: saline
[16] = dose: 200.0 mg/kg/injection, schedule: Q01DX009 (ip), vehicle: saline
[17] = dose: 100.0 mg/kg/injection, schedule: Q01DX001 (ip), vehicle: saline
[18] = dose: 200.0 mg/kg/injection, schedule: Q01DX001 (ip), vehicle: saline
[19] = dose: 400.0 mg/kg/injection, schedule: Q01DX001 (ip), vehicle: saline
[20] = dose: 100.0 mg/kg/injection, schedule: Q01DX001 (ip), vehicle: saline with Tween-80
[21] = dose: 100.0 mg/kg/injection, schedule: Q01DX009 (ip), vehicle: saline with Tween-80
[22] = dose: 100.0 mg/kg/injection, schedule: Q04DX002 (ip), vehicle: saline with Tween-80
[23] = dose: 200.0 mg/kg/injection, schedule: Q01DX001 (ip), vehicle: saline with Tween-80
[24] = dose: 200.0 mg/kg/injection, schedule: Q01DX009 (ip), vehicle: saline with Tween-80
[25] = dose: 200.0 mg/kg/injection, schedule: Q04DX002 (ip), vehicle: saline with Tween-80
[26] = dose: 400.0 mg/kg/injection, schedule: Q01DX009 (ip), vehicle: saline with Tween-80
[27] = dose: 400.0 mg/kg/injection, schedule: Q04DX002 (ip), vehicle: saline with Tween-80

Measured: T/C

CCCCCCCC(=O)NN
inactive: dose: 25.0 mg/kg/injection, schedule: Q01DX009 (ip), vehicle: other 104 % of control | dose: 50.0 mg/kg/injection, schedule: Q01DX009 (ip), vehicle: carboxymethylcellulose (CMC) 89 % of control | dose: 50.0 mg/kg/injection, schedule: Q01DX009 (ip), vehicle: other 93 % of control | [1] 117 % of control | dose: 100.0 mg/kg/injection, schedule: Q01DX009 (ip), vehicle: carboxymethylcellulose (CMC) 86 % of control | dose: 100.0 mg/kg/injection, schedule: Q01DX009 (ip), vehicle: other 98 % of control | [2] 97 % of control | dose: 200.0 mg/kg/injection, schedule: Q01DX009 (ip), vehicle: other 107 % of control | [3] 95 % of control | dose: 400.0 mg/kg/injection, schedule: Q01DX009 (ip), vehicle: other 98 % of control

CSc1nc(Cl)cc2c1ncn2C1OC(CO)C(O)C1O (stereo unspecified)
inactive: dose: 100.0 mg/kg/injection, schedule: Q01DX005 (ip), vehicle: saline 100 % of control | dose: 200.0 mg/kg/injection, schedule: Q01DX005 (ip), vehicle: saline 100 % of control

O=CC(O)C(O)C(OC1OC(CO)C(OC2OC(CO)C(O)C(O)C2O)C(O)C1O)C(O)CO (stereo unspecified)
inactive: [4] 93 % of control | [5] 93 % of control | [6] 94 % of control

NC(N)=N/N=C/N1CCCCC1
inactive: [7] 90 % of control | [8] 100 % of control | [9] 110 % of control | [10] 89 % of control | dose: 300.0 mg/kg/injection, schedule: Q01DX Z (oral), vehicle: methylcellulose (MC) 100 % of control | dose: 360.0 mg/kg/injection, schedule: Q01DX Z (ip), vehicle: methylcellulose (MC) 103 % of control | dose: 400.0 mg/kg/injection, schedule: Q01DX Z (oral), vehicle: methylcellulose (MC) 105 % of control | dose: 480.0 mg/kg/injection, schedule: Q01DX Z (ip), vehicle: methylcellulose (MC) 107 % of control | [11] 101 % of control | dose: 720.0 mg/kg/injection, schedule: Q01DX Z (ip), vehicle: methylcellulose (MC) 95 % of control

COc1ccc(C(=O)Nc2ccccc2)cc1NC(=O)NC(C)=O
inactive: [12] 97 % of control | [13] 106 % of control | [14] 100 % of control

COC(=O)c1cccc2c1ccc1ccccc12
inactive: dose: 37.5 mg/kg/injection, schedule: Q04DX003 (ip), vehicle: saline 92 % of control | dose: 50.0 mg/kg/injection, schedule: Q01DX009 (ip), vehicle: Klucel (hydroxypropylcellulose) (HPC) 111 % of control | dose: 75.0 mg/kg/injection, schedule: Q04DX003 (ip), vehicle: saline 94 % of control | [12] 105 % of control | dose: 150.0 mg/kg/injection, schedule: Q04DX003 (ip), vehicle: saline 89 % of control | [13] 96 % of control

O=S1(=O)C2C=CCC1C(O)CC2 (stereo unspecified)
inactive: [15] 101 % of control | [16] 99 % of control | dose: 400.0 mg/kg/injection, schedule: Q01DX009 (ip), vehicle: saline 101 % of control

O=S(=O)(Cc1ccccc1)N1CCCCC1
inactive: dose: 100.0 mg/kg/injection, schedule: Q04DX002 (ip), vehicle: Klucel (hydroxypropylcellulose) (HPC) 99 % of control | dose: 200.0 mg/kg/injection, schedule: Q04DX002 (ip), vehicle: Klucel (hydroxypropylcellulose) (HPC) 99 % of control

C=CCNC(=S)Nc1cccc(C(C)O)c1 (stereo unspecified)
inactive: [15] 107 % of control | dose: 100.0 mg/kg/injection, schedule: Q04DX002 (ip), vehicle: saline 89 % of control | [16] 112 % of control | dose: 200.0 mg/kg/injection, schedule: Q04DX002 (ip), vehicle: saline 89 % of control | dose: 400.0 mg/kg/injection, schedule: Q04DX002 (ip), vehicle: saline 96 % of control

O=C1CC(N2CC2)C(=O)N1c1ccccc1 (stereo unspecified)
inactive: [12] 104 % of control | dose: 100.0 mg/kg/injection, schedule: Q04DX003 (ip), vehicle: Klucel (hydroxypropylcellulose) (HPC) 105 % of control | [13] 92 % of control | dose: 200.0 mg/kg/injection, schedule: Q04DX003 (ip), vehicle: Klucel (hydroxypropylcellulose) (HPC) 113 % of control | dose: 400.0 mg/kg/injection, schedule: Q04DX003 (ip), vehicle: Klucel (hydroxypropylcellulose) (HPC) 88 % of control

O=c1ccnc(SCc2ccccc2)[nH]1
inactive: dose: 100.0 mg/kg/injection, schedule: Q01DX Z (ip), vehicle: methylcellulose (MC) 95 % of control | dose: 200.0 mg/kg/injection, schedule: Q01DX Z (ip), vehicle: methylcellulose (MC) 97 % of control

O=C1CCCNc2c(Br)cc(Br)cc21
inactive: [1] 91 % of control | [2] 94 % of control | [3] 100 % of control

CCCCCCCCCCCCCCCCCC(=O)OCCOCCOCCOCCOCCOCCOCCOCCOCCO
inactive: [17] 100 % of control | [18] 94 % of control | [19] 97 % of control

CCOC(=O)c1ccc(NC(=O)Oc2ccc3ccccc3c2)cc1
inactive: [20] 96 % of control | [21] 100 % of control and 90 % of control | [22] 99 % of control and 88 % of control | [23] 93 % of control and 86 % of control | [24] 92 % of control and 100 % of control | [25] 97 % of control and 91 % of control | dose: 400.0 mg/kg/injection, schedule: Q01DX001 (ip), vehicle: saline with Tween-80 93 % of control and 91 % of control | [26] 100 % of control and 90 % of control | [27] 92 % of control and 88 % of control

Cc1cc(=O)c2c(=O)[nH][nH]c2[nH]1
inactive: [4] 95 % of control | [5] 105 % of control | [6] 94 % of control

Cc1ccc(N2CCCC(=O)C(O)CCC2)cc1 (stereo unspecified)
inactive: [17] 98 % of control | [15] 100 % of control | [18] 90 % of control | [16] 96 % of control | dose: 300.0 mg/kg/injection, schedule: Q01DX009 (ip), vehicle: saline 116 % of control | [19] 90 % of control

Fc1ccc(NC(=S)N/N=C\c2ccc(Cl)cc2Cl)cc1
inactive: [7] 103 % of control | [8] 89 % of control | [9] 89 % of control | [10] 93 % of control | [11] 95 % of control

COCCc1cccc(C)n1
inactive: [15] 93 % of control | [4] 93 % of control | [16] 92 % of control | [5] 94 % of control | [6] 91 % of control

CCCCCCCCCCCCN1CC1
inactive: dose: 10.0 mg/kg/injection, schedule: Q01DX009 (ip), vehicle: Klucel (hydroxypropylcellulose) (HPC) 108 % of control | dose: 20.0 mg/kg/injection, schedule: Q01DX009 (ip), vehicle: Klucel (hydroxypropylcellulose) (HPC) 109 % of control

Cc1cn(-c2c(C)c(C)c(-n3c(C)ccc3C)c(C)c2C)cc1C
inactive: [12] 86 % of control | [13] 93 % of control | [14] 90 % of control

O=C(NC(=S)Nc1ccc(Cl)c(Cl)c1)c1ccc(Cl)cc1Cl
inactive: [20] 93 % of control | [21] 97 % of control and 98 % of control | [22] 98 % of control and 90 % of control | dose: 100.0 mg/kg/injection, schedule: Q04DX003 (ip), vehicle: saline with Tween-80 93 % of control | [23] 89 % of control | [24] 91 % of control and 92 % of control | [25] 101 % of control | dose: 200.0 mg/kg/injection, schedule: Q04DX003 (ip), vehicle: saline with Tween-80 93 % of control | [26] 87 % of control and 91 % of control | [27] 95 % of control and 90 % of control | dose: 400.0 mg/kg/injection, schedule: Q04DX003 (ip), vehicle: saline with Tween-80 93 % of control
